Measured values published in US20110152218A1, “CRYSTALLINE PHOSPHOLIPID, METHOD FOR ITS PRODUCTION AND USE IN TREATING DAMAGED TISSUE” (priority 2008, published 2011).

Key:
HPMC [1] = assay: HPMC ATP bioluminescence assay; format: cell-based, human; settings: 72 hours; single well; over the tested concentrations
Procedure: The viability of HPMC after stimulation with FCS, phospholipid prepared according to Example 1 (Vibrated and Non-vibrated), lysophosphatidic acid (LPA), DPPC, DPPC/LPA, POPC, Curosurf, egg-PG (EPG) and the three Intralipid™ products was determined using an ATP assay. This assay measures the light emitted during the ATP dependant oxidation of luciferin in order to accurately quantify the ATP concentration.
As described in Example 3, primary HPMC are isolated from omental tissue biopsies donated by consenting patients undergoing elective abdominal surgery. Cells are grown to approximately 60% confluence in 96 well plates (Falcon) and used at passage 2. All cells are growth arrested in serum free M199 for 24 hours prior to use.
An ATP Bioluminescence Assay Kit CLS II (Roche Diagnostics, Cat No 1 699 695, 11857300) was used. It contains ATP Standard, Luciferase and distilled water. A 10 mM EDTA solution was prepared by dissolving 1.8612 g EDTA (Fischer Scientific, Code D/0650/60, Batch 0447430, Mr-372.24) in 500 ml H2O (or 3.7224 g in 1 litre). A BAC-extract solution was prepared by dissolving 1 g Benzalkonium Chloride (Sigma-Aldrich, Cat:-23, 442-7, Lot S22104-334) in 1 litre of 10 mM EDTA. […]
To mix, rotate the bottle carefully. • 2) Make up an ATP standard solution having a base concentration of 1.65 μM ATP. […] Use distilled water as the control. • 4) Set the Fluostar Optima plate reader to measure luminescence. Set the Fluostar Optima plate reader pump to inject 20 μl of luciferase into each of the required wells. • 5) Place the plate into the plate reader and measure the relative light units (RLU). • 6) Prepare a standard curve such as that shown in FIG. 16 by plotting a graph of RLU against ATP concentration.
96 well plates from the HPMC proliferation study were defrosted. […] The ATP concentrations were calculated from the RLU of the samples using the standard curve. As an alternative to using an ATP standard curve, data can be normalised to the un-stimulated control and expressed as “ATP (% of control)”.

[2] = test system: human peritoneal mesothelial cell (HPMC); assay: HPMC proliferation, Alamar Blue and MTT assay; format: cell-based; settings: 48 hours and 72 hours; over the tested concentrations in supplemented M199
Procedure: The effect of a phospholipid prepared as described in Example 1 (and/or its constituent compounds) to induce human peritoneal mesothelial cell proliferation was assessed using an Alamar Blue™ assay and an MTT assay.
The Alamar Blue™ assay is designed to measure the proliferation of various cell types by measuring the ability of the cells to metabolise and reduce a REDOX indicator (Alamar Blue™). Reduction of the REDOX indicator results in a change in its fluorescent activity. Therefore the fluorescent activity measured is proportional to cell proliferation.
The MTT Assay measures the proliferations of various cells and is based on the mitochondrial conversion of tetrazolium salt 3-[4,5-dimethyl-thiazol-2-yl]-2,5-diphenyltetrazium bromide (MTT), into an insoluble formazan salt. The resultant colour change is directly related to the number of viable cells.
As described in Morgan L W et al (“Glucose degradation products (GDP) retard re-mesothelialisation independently of D-glucose concentration.” Kidney Int 64:1854-1866, 2003), primary HPMC are isolated from omental tissue biopsies donated by consenting patients undergoing elective abdominal surgery. Cells were grown to approximately 60% confluence in 96 well plates (Falcon) and used at passage 2. All cells were growth arrested in serum free M199 for 24 hours prior to use.
The supplemented M199 medium was prepared as follows. Earle's salt medium M199 was supplemented with 100μ/ml penicillin, 100 μg/ml streptomycin, 2 mM glutamine, 5 μg/ml insulin, 5 μg/ml transferrin and 0.4 μg/ml hydrocortisone and 2 mmol/L N-2-hydroxyethylpiperazine-N′-2ethanesulfonic acid.
The phospholipid prepared as described in Example 1 was prepared as follows. […]
The growth medium was aspirated from each well and then the well was washed once using 200 μl per well of supplemented M199. […] The fluorescent activity of Alamar Blue™ at 540 nm (wavelength) was measured using a Dynex Revalation 96-multiwell plate reader. […]

HPMC [3] = assay: Alamar Blue assay of HPMC proliferation in various tested media; format: cell-based, human; settings: 50/50 v/v Hartmanns solution and supplemented M199; 48 hours; single well
Procedure: The suitability of various media for use in forming a dispersion of phospholipid prepared as described in Example 1 or of DPPC was investigated. The Alamar Blue™ assay of HPMC proliferation described in Example 3 was repeated using a single well of cells for each stimulation with a positive control of FCS dispersed in the tested medium, a negative control of the tested medium, and a phospholipid dispersed in the tested medium. The results obtained after 48 hours are shown in FIGS. 13A-13J and discussed below.

## CCCCCCCCCCCCCCCC(=O)OC[C@H](COP(=O)([O-])OCC[N+](C)(C)C)OC(=O)CCCCCCCCCCCCCCC [DPPC, Dipalmitoyl phosphatidyl choline]
HPMC [1]
  HPMC proliferation by ATP assay (ATP % of control) compared to the negative control: no increase of HPMC proliferation
[2]
  HPMC proliferation compared to the negative control: no significant stimulation of HPMC proliferation
HPMC [3]
  HPMC proliferation response in the first tested medium: not as great as DPPC in supplemented M199 by itself
